# Experimental data from PubChem BioAssay (NCI).
#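 In this assay, cells in 96-well plates receive the compound at five concentrations for 48 hours. Endpoints are linearly interpolated between the surrounding concentrations. GI50 = concentration required for 50% inhibition of growth. TGI: total growth inhibition.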
# Assays:
# Test in all cases: NCI tumour cell line growth inhibition, 48 h
# [1] = test system: BT-549 breast
# [2] = test system: XF 498 CNS
# [3] = test system: DMS 273 small cell lung
# [4] = test system: KM20L2 colon
# [5] = test system: M19-MEL melanoma
# [6] = test system: HOP-18 NSCLC
# [7] = test system: DLD-1 colon
# [8] = test system: RXF-631 renal
# [9] = test system: MDA-N
Structure (SMILES),GI50 [1] [µM],TGI [1] [µM],TGI [2] [µM],TGI [3] [µM],TGI [4] [µM],TGI [5] [µM],TGI [6] [µM],TGI [7] [µM],TGI [8] [µM],TGI [9] [µM]
COc1cc(CSc2nc3ccc(C)cc3c(=O)n2Cc2ccccc2)cc(OC)c1OC,7.07,77.5,–,–,–,–,–,–,–,–
C=C1CC(CCCl)(c2ccccc2)OC1=O (stereo unspecified),–,–,> 100,> 100,> 100,> 54.9,> 59.3,42.5,> 62.8,–
CCCNCc1nc2ccc(Br)cc2c(=O)n1CCC,–,–,30.9,25.2,34.3,26.1,32.1,21.7,19,–
N=C(N)SCCc1cn2ccccc2n1,–,–,> 100,> 100,–,> 100,> 100,> 100,–,–
CN1C(=O)CNC(=O)[C@H](NC(=O)c2nc3ccccc3cc2O)CSSC[C@H]1C(=O)NCCc1nc2ccccc2cc1O,14.3,51.7,–,–,–,–,–,–,–,–
Cc1ccccc1C(=O)Oc1ccc(Oc2ccccc2)cc1,–,–,> 100,> 100,> 100,> 100,> 100,> 100,–,–
Nc1ccc(Nc2nc(F)nc(-c3c4ccccc4c4n3CCS4)n2)cc1,–,–,20.3,24,33.5,40.5,33.9,34.8,32.3,–
N=C(c1ccccc1)N(O)C1CCCCC1,–,–,–,> 100,> 100,> 100,> 100,> 100,–,–
CC(=O)O[C@@H]1CO[C@H]2O[C@H]3[C@@H](C(C=O)=C[C@H](O)[C@@H]4C5=C(C(C)C)CC[C@]5(C)CC[C@@]34C)[C@@]2(O)C1=O,–,0.353,–,–,–,–,–,–,–,0.415
O=C(Nc1c(-c2nc3ccccc3[nH]2)sc(=S)n1-c1ccccc1)c1ccccc1,–,–,–,> 100,–,> 100,> 100,> 100,> 100,–
O=C(OCCOCBr)c1ccccc1,–,–,–,> 100,> 100,–,> 100,> 100,> 100,–
CN(C)CCNc1ccc([N+](=O)[O-])c2nc3ccccc3c(N)c12,–,–,–,–,–,–,–,–,–,2.09
CCCCC(=O)N/N=C/c1cc(I)cc(I)c1O,4.48,29.5,–,–,–,–,–,–,–,–
CC(=O)OC1COC(S[As](C)C)C(OC(C)=O)C1OC(C)=O (stereo unspecified),0.755,6.22,–,–,–,–,–,–,–,–
Nc1ccc2c(c1)C(=O)c1c(F)cccc1-2,–,> 100,–,–,–,–,–,–,–,> 100
Cn1c(CCC#N)nc2ccc(Br)cc2c1=O,–,–,> 100,–,> 100,–,–,> 100,> 100,–
CC1(C)N=C(N)N=C(N)N1c1ccc(F)c(C(F)(F)F)c1,1.96,> 87.9,–,–,–,–,–,–,–,–
Cn1c(COC(=O)N2CCCCC2)nc2c(N3CCOCC3)nc(-c3ccccc3)nc21,1.01,2.26,–,–,–,–,–,–,–,–
COc1ccc2[nH]cc(-c3nc(-c4cn(C)c5ccncc45)cs3)c2c1,1.79,3.4,–,–,–,–,–,–,–,–
COc1cc2c(c(OC)c1OC)-c1[nH]ncc1CC2,–,–,> 100,> 100,> 100,> 100,> 100,> 100,–,–

Structure (SMILES),GI50 [1] [µM],TGI [1] [µM],TGI [2] [µM],TGI [3] [µM],TGI [4] [µM],TGI [5] [µM],TGI [6] [µM],TGI [7] [µM],TGI [8] [µM],TGI [9] [µM]
CCC[C@H](N[C@@H]1CCc2cc(F)cc(F)c2C1)C(=O)Nc1cn(C(C)(C)CNCC(C)(C)C)cn1,11.5,37.8,–,–,–,–,–,–,–,–
C#C[C@]1(O)CC[C@H]2[C@@H]3CC=C4c5sc(N=C(N)N)nc5CC[C@]4(C)[C@H]3CC[C@@]21C,1.08,2.49,–,–,–,–,–,–,–,–
CCOC(=O)/N=C(\N)SCc1ccccc1,–,–,> 100,> 100,> 100,> 100,> 100,> 100,> 100,–
CC(C)C(=O)N[C@@H](C)C(=O)N(Cc1ccc2ccccc2c1)N=O,–,–,> 100,> 100,> 100,> 100,0.0979,> 100,–,–
O=C(N/N=C1\CCc2ccccc2C1)N/N=C1\CCc2ccccc2C1,–,> 10,–,–,–,–,–,–,–,> 10
O=c1/c(=C/c2ccc(Cl)cc2Cl)sc2nc3ccccc3n12,–,–,> 100,> 100,> 100,> 100,> 100,> 100,> 100,–
C(=C1c2ccccc2-c2ccccc21)c1ccccn1,8.85,53.1,–,–,–,–,–,–,–,–
O=S1(=O)CCN(Cc2ccccn2)CC1,–,> 100,–,–,–,–,–,–,–,> 100
Nc1cc(-c2ccccc2)ccc1O,79.3,> 100,–,–,–,–,–,–,–,–
ClCCN(CCCl)c1ccc(-n2cnc3c(Cl)ncnc32)cc1,3.51,12.9,–,–,–,–,–,–,–,–
C(=C\c1csnn1)/c1cccnc1,–,–,> 100,–,> 100,> 100,> 100,> 100,> 100,–
COC(=O)C1=Nc2c(C)nn(-c3ccccc3)c2N=C(c2ccc(C)cc2)C1,–,> 10,–,–,–,–,–,–,–,> 10
O=C1Nc2ccccc2C1Cc1ccccc1 (stereo unspecified),–,–,–,–,–,–,–,–,–,> 100
COC(CCP(=O)(c1ccccc1)c1ccccc1)(C(=O)c1ccccc1)c1ccccc1 (stereo unspecified),4.55,15.6,–,–,–,–,–,–,–,–
COC(=O)c1ccccc1NC(=O)/C(=N\NC(C)(C)C)C(C#N)c1nc(-c2ccc([N+](=O)[O-])cc2)cs1 (stereo unspecified),–,> 100,–,–,–,–,–,–,–,> 100
CC(ONC(=O)c1cc(C(F)(F)F)cc(C(F)(F)F)c1)C(=O)Nc1ccc(Cl)cc1 (stereo unspecified),3.71,16.7,–,–,–,–,–,–,–,–
O=c1c2ccc3cccc4c(=O)cc(c5ccccc15)-c2c34,–,–,–,> 100,> 100,54,> 100,> 100,–,–
COc1cc(-c2[nH]ccc2Cl)oc1C1=C2N=C3C=C2C(C(C)C)C1CCCCCCCC3 (stereo unspecified),–,2.32,2.76,1.48,1.48,1.59,2.08,2.6,–,1.75
C=C=C(C)[Si](C)(C)C,–,–,–,–,–,–,–,–,–,> 100
COc1ccc(C(O)CNC(=O)c2ccccc2)cc1 (stereo unspecified),–,> 100,–,–,–,–,–,–,–,> 100
